Assay results published in the CheMixHub viscosity set.
± gives the uncertainty stated by the source.

Assay: xn = mol fraction of the nth substance listed

ClC(Cl)Cl + CCCO
viscosity [mPa·s]
Conditions | 101 kPa | 101.3 kPa
293.15 K, x2 = 0.1045 | 0.7119 ± 0.015 | –
293.15 K, x2 = 0.2064 | 0.7711 ± 0.017 | –
293.15 K, x2 = 0.3054 | 0.8524 ± 0.018 | –
293.15 K, x2 = 0.4027 | 0.9582 ± 0.02 | –
293.15 K, x2 = 0.5075 | 1.105 ± 0.024 | –
293.15 K, x2 = 0.6005 | 1.255 ± 0.027 | –
293.15 K, x2 = 0.7045 | 1.507 ± 0.032 | –
293.15 K, x2 = 0.8005 | 1.746 ± 0.037 | –
293.15 K, x2 = 0.8967 | 1.998 ± 0.043 | –
303 K, x1 = 0.2987 | – | 1.065 ± 0.018
303 K, x1 = 0.4992 | – | 0.8162 ± 0.014
303 K, x1 = 0.699 | – | 0.6346 ± 0.011
303 K, x1 = 0.9085 | – | 0.5383 ± 0.0099
303.15 K, x2 = 0.059 | 0.5225 ± 0.0044 | 0.5225 ± 0.014
303.15 K, x2 = 0.1045 | 0.6482 ± 0.014 | –
303.15 K, x2 = 0.1099 | 0.5365 ± 0.0046 | 0.5365 ± 0.014
303.15 K, x2 = 0.1428 | 0.5488 ± 0.0046 | 0.5488 ± 0.015
303.15 K, x2 = 0.1958 | 0.5706 ± 0.0048 | 0.5706 ± 0.015
303.15 K, x2 = 0.2064 | 0.6878 ± 0.015 | –
303.15 K, x2 = 0.2432 | 0.5949 ± 0.005 | 0.5949 ± 0.016
303.15 K, x2 = 0.3054 | 0.7556 ± 0.016 | –
303.15 K, x2 = 0.3447 | 0.6588 ± 0.0055 | 0.6588 ± 0.017
303.15 K, x2 = 0.4027 | 0.8383 ± 0.018 | –
303.15 K, x2 = 0.4974 | 0.8026 ± 0.0065 | 0.8026 ± 0.021
303.15 K, x2 = 0.5075 | 0.9487 ± 0.02 | –
303.15 K, x2 = 0.6005 | 1.073 ± 0.023 | –
303.15 K, x2 = 0.6171 | 0.9716 ± 0.0078 | 0.9716 ± 0.026
303.15 K, x2 = 0.7045 | 1.242 ± 0.026 | –
303.15 K, x2 = 0.7318 | 1.185 ± 0.0093 | 1.185 ± 0.031
303.15 K, x2 = 0.8005 | 1.408 ± 0.03 | –
303.15 K, x2 = 0.8606 | 1.46 ± 0.011 | 1.46 ± 0.038
303.15 K, x2 = 0.8967 | 1.584 ± 0.034 | –
303.15 K, x2 = 0.9106 | 1.565 ± 0.012 | 1.565 ± 0.041
303.15 K, x2 = 0.9251 | 1.595 ± 0.012 | 1.595 ± 0.042
303.15 K, x2 = 0.9307 | 1.606 ± 0.012 | –
303.15 K, x2 = 0.95 | 1.643 ± 0.013 | –
311 K, x1 = 0.0987 | – | 1.283 ± 0.021
311 K, x1 = 0.2987 | – | 0.9064 ± 0.015
311 K, x1 = 0.4992 | – | 0.7227 ± 0.013
311 K, x1 = 0.699 | – | 0.5734 ± 0.01
311 K, x1 = 0.9085 | – | 0.4977 ± 0.0093
313.15 K, x2 = 0.1045 | 0.5901 ± 0.013 | –
313.15 K, x2 = 0.2064 | 0.6192 ± 0.013 | –
313.15 K, x2 = 0.3054 | 0.6675 ± 0.014 | –
313.15 K, x2 = 0.4027 | 0.7329 ± 0.016 | –
313.15 K, x2 = 0.5075 | 0.8143 ± 0.017 | –
313.15 K, x2 = 0.6005 | 0.9163 ± 0.02 | –
313.15 K, x2 = 0.7045 | 1.043 ± 0.022 | –
313.15 K, x2 = 0.8967 | 1.278 ± 0.027 | –
319 K, x1 = 0.0987 | – | 1.08 ± 0.018
319 K, x1 = 0.2941 | – | 0.8178 ± 0.014
319 K, x1 = 0.497 | – | 0.6404 ± 0.011
319 K, x1 = 0.699 | – | 0.5202 ± 0.0096
319 K, x1 = 0.9085 | – | 0.4655 ± 0.0088
323.15 K, x2 = 0.1045 | 0.4791 ± 0.01 | –
323.15 K, x2 = 0.2064 | 0.535 ± 0.011 | –
323.15 K, x2 = 0.3054 | 0.5965 ± 0.013 | –
323.15 K, x2 = 0.4027 | 0.6495 ± 0.014 | –
323.15 K, x2 = 0.5075 | 0.7165 ± 0.015 | –
323.15 K, x2 = 0.6005 | 0.7941 ± 0.017 | –
323.15 K, x2 = 0.7045 | 0.8805 ± 0.019 | –
323.15 K, x2 = 0.8005 | 0.965 ± 0.021 | –
323.15 K, x2 = 0.8967 | 1.047 ± 0.022 | –

ClC(Cl)Cl + CO
viscosity [mPa·s]
Conditions | 101 kPa | 101.3 kPa
303 K, x1 = 0.096 | – | 0.5644 ± 0.01
303 K, x1 = 0.1963 | – | 0.6289 ± 0.011
303 K, x1 = 0.2971 | – | 0.6315 ± 0.011
303 K, x1 = 0.4963 | – | 0.5872 ± 0.011
303 K, x1 = 0.6952 | – | 0.5447 ± 0.01
303 K, x1 = 0.9092 | – | 0.5211 ± 0.0096
303.15 K, x1 = 0.0499 | 0.59 ± 0.016 | –
303.15 K, x1 = 0.1326 | 0.642 ± 0.017 | –
303.15 K, x1 = 0.3228 | 0.653 ± 0.017 | –
303.15 K, x1 = 0.4234 | 0.634 ± 0.017 | –
303.15 K, x1 = 0.5123 | 0.621 ± 0.016 | –
303.15 K, x1 = 0.6981 | 0.608 ± 0.016 | –
303.15 K, x1 = 0.8262 | 0.61 ± 0.016 | –
303.15 K, x2 = 0.0625 | 0.509 ± 0.0038 | 0.509 ± 0.014
303.15 K, x2 = 0.0947 | 0.5084 ± 0.0038 | 0.5084 ± 0.013
303.15 K, x2 = 0.1406 | 0.5099 ± 0.0038 | 0.5099 ± 0.014
303.15 K, x2 = 0.183 | 0.5138 ± 0.0039 | 0.5138 ± 0.014
303.15 K, x2 = 0.2165 | 0.5168 ± 0.0039 | 0.5168 ± 0.014
303.15 K, x2 = 0.3004 | 0.5296 ± 0.004 | 0.5296 ± 0.014
303.15 K, x2 = 0.3311 | 0.5343 ± 0.0041 | 0.5343 ± 0.014
303.15 K, x2 = 0.3671 | 0.5424 ± 0.0041 | 0.5424 ± 0.014
303.15 K, x2 = 0.3854 | 0.546 ± 0.0042 | 0.546 ± 0.015
303.15 K, x2 = 0.4503 | 0.5601 ± 0.0043 | 0.5601 ± 0.015
303.15 K, x2 = 0.5306 | 0.5764 ± 0.0045 | 0.5764 ± 0.015
303.15 K, x2 = 0.615 | 0.5904 ± 0.0046 | 0.5904 ± 0.016
303.15 K, x2 = 0.7056 | 0.5975 ± 0.0047 | 0.5975 ± 0.016
303.15 K, x2 = 0.743 | 0.5962 ± 0.0048 | 0.5962 ± 0.016
303.15 K, x2 = 0.8147 | 0.5864 ± 0.0048 | 0.5864 ± 0.016
303.15 K, x2 = 0.8944 | 0.5613 ± 0.0046 | 0.5613 ± 0.015
303.15 K, x2 = 0.9355 | 0.5417 ± 0.0045 | 0.5417 ± 0.014
303.15 K, x2 = 0.961 | 0.5281 ± 0.0045 | 0.5281 ± 0.014
311 K, x1 = 0.096 | – | 0.5043 ± 0.0094
311 K, x1 = 0.1963 | – | 0.5549 ± 0.01
311 K, x1 = 0.2971 | – | 0.5593 ± 0.01
311 K, x1 = 0.4963 | – | 0.5271 ± 0.0097
311 K, x1 = 0.6952 | – | 0.4971 ± 0.0093
311 K, x1 = 0.9092 | – | 0.4822 ± 0.0091
313.15 K, x1 = 0.0499 | 0.527 ± 0.014 | –
313.15 K, x1 = 0.1326 | 0.557 ± 0.015 | –
313.15 K, x1 = 0.3228 | 0.566 ± 0.015 | –
313.15 K, x1 = 0.4234 | 0.554 ± 0.015 | –
313.15 K, x1 = 0.5123 | 0.549 ± 0.015 | –
313.15 K, x1 = 0.6981 | 0.545 ± 0.015 | –
313.15 K, x1 = 0.8262 | 0.55 ± 0.015 | –
319 K, x1 = 0.096 | – | 0.4586 ± 0.0087
319 K, x1 = 0.1963 | – | 0.4932 ± 0.0092
319 K, x1 = 0.2971 | – | 0.5022 ± 0.0094
319 K, x1 = 0.4963 | – | 0.4779 ± 0.009
319 K, x1 = 0.6952 | – | 0.4574 ± 0.0087
319 K, x1 = 0.9092 | – | 0.4489 ± 0.0086
323.15 K, x1 = 0.0499 | 0.439 ± 0.012 | –
323.15 K, x1 = 0.1326 | 0.448 ± 0.012 | –
323.15 K, x1 = 0.3228 | 0.451 ± 0.012 | –
323.15 K, x1 = 0.4234 | 0.468 ± 0.013 | –
323.15 K, x1 = 0.5123 | 0.474 ± 0.013 | –
323.15 K, x1 = 0.6981 | 0.482 ± 0.013 | –
323.15 K, x1 = 0.8262 | 0.496 ± 0.013 | –
